Experimental data taken from patent US6087355A, “Cephalosporin antibiotics” (Microcide Pharmaceuticals, Inc., priority 1996, dated 2000).
Counter-ions that a name gives are not always drawn.

Tests used:
[1] = test system: S. aureus Col(Meth^R)(lac^-); assay: In vitro MIC, agar dilution; type: cell-based; conditions: Staphylococcus aureus, read-out: minimum inhibitory concentration (MIC)
How it was run: (§1)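 Two-fold dilutions (128 to ≤0.25 μg/mL, in duplicate) were poured into Mueller-Hinton agar. Log-phase broth cultures were spot-inoculated at about 10^4 cfu per spot and incubated 35-36°C for 16-20 hours; the MIC was the lowest concentration inhibiting growth. Col is a high-level PBP2a producer; Col 8A is its isogenic PBP2a-lacking partner.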

[2] = test system: S. aureus Col8A(Meth^S)(lac^-); assay: In vitro MIC, agar dilution; type: cell-based; conditions: Staphylococcus aureus; S. aureus Col8A(Meth^S)(lac^-); read-out: minimum inhibitory concentration (MIC)
How it was run: as §1

[3] = test system: S. aureus strain ATCC 13709 (methicillin-susceptible); assay: Murine model for lethal bacteremic peritonitis; type: in vivo, female Swiss-Webster mice; conditions: Staphylococcus aureus, ATCC13709, SC, 72 h; for responders at 0.3125 mg/kg / responders at 0.625 mg/kg / responders at 2.5 mg/kg / responders at 5 mg/kg: read-out: Survivors; for responders at 1.25 mg/kg: read-out: Survivors (converted); for ED50: two equal doses, IP challenge, read-out: ED50
How it was run: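 Female Swiss-Webster mice were challenged IP with an LD100 inoculum in 7% hog gastric mucin, then given test drug subcutaneously in twofold increments (0.01–512 mg/kg) as two equal doses at challenge and 2 h later, 10 mice per group. Survival was scored at 72 h; PD50 (total mg/kg) was derived by probit.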

E. faecalis ATCC 29212 = assay: In vitro MIC, agar dilution; type: cell-based; conditions: Enterococcus faecalis, ATCC29212, read-out: minimum inhibitory concentration (MIC)
How it was run: (§2)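 Spots of about 10^4 cfu of log-phase culture were applied, and plates were incubated 16-20 h at 35-36 °C. MIC was the lowest concentration inhibiting growth.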

E. coli ATCC 25992 = assay: In vitro MIC, agar dilution; type: cell-based; conditions: Escherichia coli, ATCC25992, read-out: minimum inhibitory concentration (MIC)
How it was run: as §2

E. faecium A491(Amp^R) = assay: In vitro MIC, agar dilution; type: cell-based; conditions: Enterococcus faecium, read-out: minimum inhibitory concentration (MIC)
How it was run: as §2

[4] = test system: S. aureus ATCC 33593(Meth^R); assay: In vitro MIC, agar dilution; type: cell-based; conditions: Staphylococcus aureus, ATCC33593, read-out: minimum inhibitory concentration (MIC)
How it was run: as §2

[5] = test system: S. haemolyticus 05(Meth^R); assay: In vitro MIC, agar dilution; type: cell-based; conditions: Staphylococcus haemolyticus, read-out: minimum inhibitory concentration (MIC)
How it was run: as §2

[6] = test system: S. aureus 76(Meth^R)(lac^+); assay: In vitro MIC, agar dilution; type: cell-based; conditions: Staphylococcus aureus, read-out: minimum inhibitory concentration (MIC)
How it was run: as §2

E. faecium ATCC 35667 = assay: In vitro MIC, agar dilution; type: cell-based; conditions: Enterococcus faecium, ATCC35667, read-out: minimum inhibitory concentration (MIC)
How it was run: as §2

S. aureus ATCC 29213 = assay: In vitro MIC, agar dilution; type: cell-based; conditions: Staphylococcus aureus, ATCC29213, read-out: minimum inhibitory concentration (MIC)
How it was run: as §2

[7] = test system: S. aureus ATCC 13709(Meth^S); assay: In vitro MIC, agar dilution; type: cell-based; conditions: Staphylococcus aureus, ATCC13709, S. aureus ATCC 13709(Meth^S); read-out: minimum inhibitory concentration (MIC)
How it was run: as §2

[8] = test system: S. aureus PC1(Meth^S)(lac^+); assay: In vitro MIC, agar dilution; type: cell-based; conditions: Staphylococcus aureus, read-out: minimum inhibitory concentration (MIC)
How it was run: as §2

E. faecium VanA(Van^R) = assay: In vitro MIC, agar dilution; type: cell-based; conditions: Enterococcus faecium, read-out: minimum inhibitory concentration (MIC)
How it was run: as §2

P. aeruginosa ATCC 27853 = assay: In vitro MIC, agar dilution; type: cell-based; conditions: Pseudomonas aeruginosa, ATCC27853, read-out: minimum inhibitory concentration (MIC)
How it was run: as §2

E. faecalis VanB(Van^R) = assay: In vitro MIC, agar dilution; type: cell-based; conditions: Enterococcus faecalis, read-out: minimum inhibitory concentration (MIC)
How it was run: as §2

[9] = test system: S. aureus Spain #356(Meth^R); assay: In vitro MIC, agar dilution; type: cell-based; conditions: Staphylococcus aureus, read-out: minimum inhibitory concentration (MIC)
How it was run: as §2

Nc1nc(/C(=N/O)C(=O)N[C@@H]2C(=O)N3C(C(=O)O)=C(Sc4ccncc4SCCNC=O)CS[C@H]23)c(Cl)s1 [Cmpd 64, (7R)-7-[(Z)-2-(2-amino-5-chlorothiazol-4-yl)-2-(hydroxyimino)acetamido]-3-(3-(N-formylaminoethylthio)pyrid-4-ylthio)-3-cephem-4-carboxylate, trifluoroacetic acid salt]
MIC [1]: 2 µg/mL | MIC [2]: 0.25 µg/mL | responders at 0.3125 mg/kg [3]: 10% | responders at 0.625 mg/kg [3]: 10% | responders at 1.25 mg/kg [3]: 40% | responders at 2.5 mg/kg [3]: 40% | responders at 5 mg/kg [3]: 80% | ED50 [3]: 2.27 mg/kg | MIC (E. faecalis ATCC 29212): 0.25 µg/mL | MIC (E. coli ATCC 25992): 8 µg/mL | MIC (E. faecium A491(Amp^R)): 16 µg/mL | MIC [4]: 2 µg/mL | MIC [5]: 4 µg/mL | MIC [6]: 4 µg/mL | MIC (E. faecium ATCC 35667): 1 µg/mL | MIC (S. aureus ATCC 29213): 0.25 µg/mL | MIC [7]: 0.25 µg/mL | MIC [8]: 0.5 µg/mL | MIC (E. faecium VanA(Van^R)): 2 µg/mL | MIC (P. aeruginosa ATCC 27853): > 32 µg/mL | MIC (E. faecalis VanB(Van^R)): 0.5 µg/mL | MIC [9]: 4 µg/mL

NCCCSCc1cnccc1SC1=C(C(=O)O)N2C(=O)[C@@H](NC(=O)/C(=N\O)c3nc(N)sc3Cl)[C@H]2SC1 [Cmpd 27, (7R)-7-[(Z)-2-(2-amino-5-chlorothiazol-4-yl)-2-(hydroxyimino)acetamido]-3-[3-(3-aminopropyl)thiomethylpyrid-4-ylthio]-3-cephem-4-carboxylate, trifluoroacetic acid salt]
MIC [1]: 0.5 µg/mL | MIC [2]: 0.13 µg/mL | responders at 0.3125 mg/kg [3]: 0% | responders at 0.625 mg/kg [3]: 0% | responders at 1.25 mg/kg [3]: 20% | responders at 2.5 mg/kg [3]: 60% | responders at 5 mg/kg [3]: 70% | ED50 [3]: 2.64 mg/kg | MIC (E. faecalis ATCC 29212): ≤ 0.06 µg/mL | MIC (E. coli ATCC 25992): 8 µg/mL | MIC (E. faecium A491(Amp^R)): 4 µg/mL | MIC [4]: 1 µg/mL | MIC [5]: 2 µg/mL | MIC [6]: 1 µg/mL | MIC (E. faecium ATCC 35667): 0.25 µg/mL | MIC (S. aureus ATCC 29213): 0.25 µg/mL | MIC [7]: 0.13 µg/mL | MIC [8]: 0.25 µg/mL | MIC (E. faecium VanA(Van^R)): 0.5 µg/mL | MIC (P. aeruginosa ATCC 27853): 32 µg/mL | MIC (E. faecalis VanB(Van^R)): ≤ 0.06 µg/mL | MIC [9]: 1 µg/mL

CNCCNCCSCc1nnsc1SC1=C(C(=O)O)N2C(=O)[C@@H](NC(=O)/C(=N\OCCF)c3nc(N)sc3Cl)[C@H]2SC1.O=C(O)C(F)(F)F [Cmpd 28, (7R)-7-[(Z)-2-(2-amino-5-chlorothiazol-4-yl)-2-(2-fluoroethoxyimino)acetamido]-3-[(methylaminoethylaminoethylthiomethyl)-1,2,3-thiadiazol-5-ylthio]-3-cephem-4-carboxylate, trifluoroacetic acid salt]
MIC [1]: 2 µg/mL | MIC [2]: 0.25 µg/mL | responders at 0.3125 mg/kg [3]: 10% | responders at 0.625 mg/kg [3]: 10% | responders at 1.25 mg/kg [3]: 40% | responders at 2.5 mg/kg [3]: 30% | responders at 5 mg/kg [3]: 70% | ED50 [3]: 3.01 mg/kg | MIC (E. faecalis ATCC 29212): 0.13 µg/mL | MIC (E. coli ATCC 25992): 2 µg/mL | MIC (E. faecium A491(Amp^R)): 16 µg/mL | MIC [4]: 4 µg/mL | MIC [5]: 4 µg/mL | MIC [6]: 2 µg/mL | MIC (E. faecium ATCC 35667): 1 µg/mL | MIC (S. aureus ATCC 29213): 1 µg/mL | MIC [7]: 0.13 µg/mL | MIC [8]: 0.5 µg/mL | MIC (E. faecium VanA(Van^R)): 4 µg/mL | MIC (P. aeruginosa ATCC 27853): 32 µg/mL | MIC (E. faecalis VanB(Van^R)): 0.25 µg/mL | MIC [9]: 2 µg/mL
